Consider three molecules from article PMC8231556, “Inhibiting Endothelial Cell Function in Normal and Tumor Angiogenesis Using BMP Type I Receptor Macrocyclic Kinase Inhibitors” (Cancers, 2021).

Assay in all cases: radiometric kinase profiling (33 PanQinase)
Holding throughout (format): biochemical

One assay deals with T1, LRRK2 (Homo sapiens, UniProt Q5S007).
T1 construct: purchased ProQinase (33PanQinase Activity Assay)
The following applies: read-out: Inhibitory effect (%) LRRK2. In outline: (§1)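 Enzyme/substrate mixes were incubated with [γ-33P]-ATP and compound (added as a 0.1 μM solution in 10% DMSO) at 30 °C for 60 min, then stopped with H3PO4 and washed with NaCl. 33P incorporation was scintillation-counted, and residual activity (%) was normalized to untreated control and background.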

In the next assay the target is T2, AURKB (Homo sapiens, UniProt Q96GD4).
T2 construct: purchased Proqinase, Germany
T2 sequence (Q96GD4 whole entry): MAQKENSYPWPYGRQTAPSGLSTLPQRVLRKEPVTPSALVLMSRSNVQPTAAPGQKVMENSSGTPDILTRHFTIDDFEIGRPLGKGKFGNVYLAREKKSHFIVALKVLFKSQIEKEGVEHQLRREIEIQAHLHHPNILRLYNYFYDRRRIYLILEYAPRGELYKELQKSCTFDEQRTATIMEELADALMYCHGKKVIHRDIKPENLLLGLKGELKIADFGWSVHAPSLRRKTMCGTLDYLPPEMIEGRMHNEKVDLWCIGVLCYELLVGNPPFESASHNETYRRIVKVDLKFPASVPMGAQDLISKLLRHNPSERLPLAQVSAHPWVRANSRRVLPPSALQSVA
The following applies: read-out: Inhibitory effect (%) AURKB. In outline: as §1

The target in another assay is T3, PLK4 (Homo sapiens, UniProt O00444).
T3 construct: purchased ProQinase (33PanQinase Activity Assay)
T3 sequence (O00444 1-970): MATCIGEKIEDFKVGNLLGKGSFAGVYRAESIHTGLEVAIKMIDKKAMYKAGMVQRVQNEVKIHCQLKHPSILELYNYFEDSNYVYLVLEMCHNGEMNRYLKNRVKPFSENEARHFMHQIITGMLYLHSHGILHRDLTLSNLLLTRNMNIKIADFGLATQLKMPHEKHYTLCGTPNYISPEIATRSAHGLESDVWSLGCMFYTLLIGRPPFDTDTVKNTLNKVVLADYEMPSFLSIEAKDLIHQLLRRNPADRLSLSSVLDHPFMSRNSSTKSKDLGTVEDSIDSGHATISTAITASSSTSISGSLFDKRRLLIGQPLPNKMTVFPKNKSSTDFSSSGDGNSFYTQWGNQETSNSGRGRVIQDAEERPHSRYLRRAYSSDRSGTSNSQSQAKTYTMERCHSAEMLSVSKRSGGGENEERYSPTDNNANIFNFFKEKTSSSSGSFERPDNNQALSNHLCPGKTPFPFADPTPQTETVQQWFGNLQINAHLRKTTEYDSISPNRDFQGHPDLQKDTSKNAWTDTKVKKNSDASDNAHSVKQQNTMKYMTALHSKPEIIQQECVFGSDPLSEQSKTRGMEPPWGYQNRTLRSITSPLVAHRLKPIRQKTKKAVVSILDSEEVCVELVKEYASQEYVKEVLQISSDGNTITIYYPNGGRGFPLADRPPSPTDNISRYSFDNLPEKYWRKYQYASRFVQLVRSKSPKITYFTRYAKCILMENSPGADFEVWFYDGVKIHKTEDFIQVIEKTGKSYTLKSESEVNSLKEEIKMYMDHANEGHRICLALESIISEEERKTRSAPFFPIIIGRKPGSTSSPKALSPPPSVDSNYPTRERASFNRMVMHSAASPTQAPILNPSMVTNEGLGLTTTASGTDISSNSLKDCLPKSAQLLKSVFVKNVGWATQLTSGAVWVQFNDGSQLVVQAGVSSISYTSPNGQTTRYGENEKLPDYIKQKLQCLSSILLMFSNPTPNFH
The following applies: read-out: Inhibitory effect (%) PLK4. The procedure, abridged:
as §1

In the next assay the target is T4, MAP3K5 (Homo sapiens, UniProt Q99683).
T4 construct: purchased ProQinase (33PanQinase Activity Assay)
T4 sequence (Q99683 1-1374): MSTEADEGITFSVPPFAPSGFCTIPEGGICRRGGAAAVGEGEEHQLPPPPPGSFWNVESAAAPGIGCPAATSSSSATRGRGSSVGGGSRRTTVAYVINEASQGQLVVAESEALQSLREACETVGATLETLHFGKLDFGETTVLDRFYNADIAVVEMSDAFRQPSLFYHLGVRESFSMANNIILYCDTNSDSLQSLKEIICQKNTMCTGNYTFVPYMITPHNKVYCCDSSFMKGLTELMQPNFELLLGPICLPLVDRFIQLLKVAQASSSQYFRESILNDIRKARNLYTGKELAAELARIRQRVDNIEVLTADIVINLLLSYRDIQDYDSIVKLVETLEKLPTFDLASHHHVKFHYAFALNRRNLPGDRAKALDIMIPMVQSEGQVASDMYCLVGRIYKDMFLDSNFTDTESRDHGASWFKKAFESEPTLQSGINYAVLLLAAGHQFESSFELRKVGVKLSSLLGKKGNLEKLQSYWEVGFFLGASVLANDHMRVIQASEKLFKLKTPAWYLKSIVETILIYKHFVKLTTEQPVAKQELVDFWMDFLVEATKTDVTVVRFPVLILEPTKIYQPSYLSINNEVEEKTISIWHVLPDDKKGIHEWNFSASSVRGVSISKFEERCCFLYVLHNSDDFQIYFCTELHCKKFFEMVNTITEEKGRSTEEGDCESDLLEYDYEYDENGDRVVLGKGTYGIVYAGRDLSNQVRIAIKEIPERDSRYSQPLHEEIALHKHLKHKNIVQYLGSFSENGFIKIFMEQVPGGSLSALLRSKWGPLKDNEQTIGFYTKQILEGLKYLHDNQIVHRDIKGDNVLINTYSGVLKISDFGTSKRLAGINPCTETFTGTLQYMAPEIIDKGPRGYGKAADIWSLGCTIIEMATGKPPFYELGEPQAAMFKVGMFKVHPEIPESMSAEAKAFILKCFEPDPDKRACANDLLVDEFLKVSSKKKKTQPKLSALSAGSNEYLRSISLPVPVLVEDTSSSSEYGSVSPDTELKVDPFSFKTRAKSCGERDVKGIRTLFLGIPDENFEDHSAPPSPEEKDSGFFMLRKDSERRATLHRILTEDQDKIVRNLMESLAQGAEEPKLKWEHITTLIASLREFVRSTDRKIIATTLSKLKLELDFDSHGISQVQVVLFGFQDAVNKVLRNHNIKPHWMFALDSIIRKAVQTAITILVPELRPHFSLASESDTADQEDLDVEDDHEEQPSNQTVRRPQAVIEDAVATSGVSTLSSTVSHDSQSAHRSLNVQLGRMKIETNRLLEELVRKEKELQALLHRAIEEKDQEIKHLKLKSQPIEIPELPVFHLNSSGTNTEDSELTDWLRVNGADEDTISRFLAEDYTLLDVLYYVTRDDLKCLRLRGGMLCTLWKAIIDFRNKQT
The following applies: read-out: Inhibitory effect (%) MAP3K5. In outline: as §1

A further assay has as its target T5, CSNK1G2 (Homo sapiens, UniProt P78368).
T5 construct: purchased Proqinase, Germany
The following applies: read-out: Inhibitory effect (%) CSNK1G2. The procedure, abridged: as §1

T1 sequence (Q5S007 whole entry): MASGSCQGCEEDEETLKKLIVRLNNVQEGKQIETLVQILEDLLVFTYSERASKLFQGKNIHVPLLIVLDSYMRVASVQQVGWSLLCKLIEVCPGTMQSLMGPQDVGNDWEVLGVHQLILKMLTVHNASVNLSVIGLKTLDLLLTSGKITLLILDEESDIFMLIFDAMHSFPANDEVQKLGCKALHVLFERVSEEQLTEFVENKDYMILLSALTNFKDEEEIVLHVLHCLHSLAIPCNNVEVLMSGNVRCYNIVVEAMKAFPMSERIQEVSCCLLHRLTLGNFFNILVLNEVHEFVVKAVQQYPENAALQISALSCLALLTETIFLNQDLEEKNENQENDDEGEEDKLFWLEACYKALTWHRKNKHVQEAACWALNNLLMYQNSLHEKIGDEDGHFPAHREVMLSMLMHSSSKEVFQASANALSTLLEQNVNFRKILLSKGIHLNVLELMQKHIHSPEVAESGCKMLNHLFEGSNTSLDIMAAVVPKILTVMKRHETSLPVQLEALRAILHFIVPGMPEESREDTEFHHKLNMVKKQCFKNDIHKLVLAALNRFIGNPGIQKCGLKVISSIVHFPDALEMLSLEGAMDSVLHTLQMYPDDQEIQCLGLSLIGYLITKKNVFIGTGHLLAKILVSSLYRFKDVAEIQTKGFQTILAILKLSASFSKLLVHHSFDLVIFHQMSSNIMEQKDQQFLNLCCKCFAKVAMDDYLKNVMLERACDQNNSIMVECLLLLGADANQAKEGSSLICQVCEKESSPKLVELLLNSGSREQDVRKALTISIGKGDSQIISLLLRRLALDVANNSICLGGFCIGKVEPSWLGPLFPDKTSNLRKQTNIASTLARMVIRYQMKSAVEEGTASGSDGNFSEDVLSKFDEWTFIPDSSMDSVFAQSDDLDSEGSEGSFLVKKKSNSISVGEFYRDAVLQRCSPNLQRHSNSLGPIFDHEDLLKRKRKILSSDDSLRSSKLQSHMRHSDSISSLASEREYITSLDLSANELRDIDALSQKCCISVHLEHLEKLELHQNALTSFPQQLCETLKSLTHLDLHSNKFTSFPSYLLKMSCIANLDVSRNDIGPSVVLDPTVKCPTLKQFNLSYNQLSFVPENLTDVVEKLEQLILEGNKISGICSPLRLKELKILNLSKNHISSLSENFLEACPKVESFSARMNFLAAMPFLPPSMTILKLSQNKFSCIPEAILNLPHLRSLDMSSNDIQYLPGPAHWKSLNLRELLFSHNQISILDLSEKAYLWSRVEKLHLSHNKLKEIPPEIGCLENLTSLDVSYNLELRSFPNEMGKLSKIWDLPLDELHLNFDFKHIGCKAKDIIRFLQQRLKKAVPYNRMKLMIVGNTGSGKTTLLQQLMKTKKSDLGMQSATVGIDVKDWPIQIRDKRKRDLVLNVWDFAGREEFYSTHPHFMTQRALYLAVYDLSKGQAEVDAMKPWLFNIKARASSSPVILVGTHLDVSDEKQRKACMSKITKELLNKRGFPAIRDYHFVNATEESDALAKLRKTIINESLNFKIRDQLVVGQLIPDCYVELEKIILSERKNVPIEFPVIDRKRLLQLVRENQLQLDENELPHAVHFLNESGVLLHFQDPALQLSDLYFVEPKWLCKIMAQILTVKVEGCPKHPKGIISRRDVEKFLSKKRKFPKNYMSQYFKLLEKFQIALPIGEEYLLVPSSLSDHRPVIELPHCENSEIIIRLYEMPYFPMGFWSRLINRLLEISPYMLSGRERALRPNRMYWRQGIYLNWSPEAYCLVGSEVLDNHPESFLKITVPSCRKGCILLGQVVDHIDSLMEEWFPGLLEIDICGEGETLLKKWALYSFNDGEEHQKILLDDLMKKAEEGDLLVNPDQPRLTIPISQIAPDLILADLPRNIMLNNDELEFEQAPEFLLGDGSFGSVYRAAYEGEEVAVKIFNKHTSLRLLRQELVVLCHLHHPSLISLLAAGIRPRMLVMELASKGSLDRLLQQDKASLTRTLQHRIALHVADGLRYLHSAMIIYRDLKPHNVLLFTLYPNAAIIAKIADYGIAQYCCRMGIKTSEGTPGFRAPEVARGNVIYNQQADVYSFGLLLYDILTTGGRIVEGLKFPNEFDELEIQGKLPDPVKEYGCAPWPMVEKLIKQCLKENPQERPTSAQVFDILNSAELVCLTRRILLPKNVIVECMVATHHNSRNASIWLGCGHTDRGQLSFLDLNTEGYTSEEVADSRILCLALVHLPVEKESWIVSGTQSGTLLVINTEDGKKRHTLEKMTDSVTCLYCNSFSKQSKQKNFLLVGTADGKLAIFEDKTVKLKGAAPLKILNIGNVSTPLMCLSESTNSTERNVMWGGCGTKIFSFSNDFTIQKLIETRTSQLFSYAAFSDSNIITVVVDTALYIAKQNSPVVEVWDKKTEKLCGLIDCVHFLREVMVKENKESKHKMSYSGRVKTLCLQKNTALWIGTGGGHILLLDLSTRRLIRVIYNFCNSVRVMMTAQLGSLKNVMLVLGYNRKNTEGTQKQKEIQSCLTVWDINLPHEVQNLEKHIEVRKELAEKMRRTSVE
T5 sequence (P78368 whole entry): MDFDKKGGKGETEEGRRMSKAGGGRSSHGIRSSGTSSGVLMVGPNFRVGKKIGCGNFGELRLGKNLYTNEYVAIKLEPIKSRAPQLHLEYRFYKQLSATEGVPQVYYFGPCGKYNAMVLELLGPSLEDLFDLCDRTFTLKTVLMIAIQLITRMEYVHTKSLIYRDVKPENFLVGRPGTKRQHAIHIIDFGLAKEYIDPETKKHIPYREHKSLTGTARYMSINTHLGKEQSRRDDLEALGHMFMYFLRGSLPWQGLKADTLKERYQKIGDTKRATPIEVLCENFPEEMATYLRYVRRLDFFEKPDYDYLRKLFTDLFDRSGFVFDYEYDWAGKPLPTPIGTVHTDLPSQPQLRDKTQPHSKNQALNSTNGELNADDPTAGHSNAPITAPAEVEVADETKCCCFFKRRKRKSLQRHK

Take `c1ccc2c(-c3cnn4cc(-c5ccc(N6CCNCC6)cc5)cnc34)ccnc2c1` [LDN-193189, reference compound]: the inhibition at 0.1 µM on LRRK2 was 5.16%; on AURKB, 3.93%; at PLK4 it was -34.4%; at MAP3K5, 6.9%; at CSNK1G2 it was -23.1%.
The corresponding values for `CN1CCc2cccc(c2)Nc2nccc(n2)N2CCCc3cc(ccc32)C1` [OD16] are 18.4%, 4.48%, 41.4%, -11.3% and -15.6%.
On the same counts, the results for `CN1CCC(=O)NCCNc2ccn3ncc(c3n2)-c2cccc(c2)C1` [OD29] are 13.8%, -11.2%, 4.1%, 0.68% and -0.5%.
